Results from patent publication US20070049538A1, “METHODS FOR USING CUCURBITACIN COMPOUNDS” (SOUTH DAKOTA STATE UNIVERSITY, priority 2005, published 2007).
Like-named read-outs stand apart in the source and are kept apart here.

Columns and labels:
[1] = system: HSC-T6 cells; experiment: Cytotoxicity on HSC-T6 cells (experiment 3); format: cell-based, rat; conditions: for IC50: read-out: Experiment 3 IC50 (T)
Description: Cytotoxicity of all cucurbitacin analogs was additionally measured in experiment 3 (Table 8).

[2] = system: HepG2 cells; experiment: cells
Description: Experimental conditions were standardized on silybin. […]
The ratio of IC50-to-EC50 (hereafter T/A) is also indicated in this table, which gives the margin between toxic and cytoprotective concentrations.

[3] = Chromatographic hydrophobicity index (CHI) by RP-HPLC in buffered methanol; format: physicochemical; conditions: for CHIMeOH: buffered methanol pH 7.0, Econosil C18 150 mm, Eq. (4); for CHIMeOH (b): standard compounds, isochratic and gradient elution of standard mixture
Description: (§1) We used Dynamax liquid chromatograph (Varian Chromatography Systems) with PDA-2 photodiode array UV detector, controlled by the Dynamax PC Chromatography Data System (v. 1.9) software and Dynamax dual pump solvent delivery system, model SD-200. […] Cucurbitacins analytical separation was optimized on Alltima C18 (Alltech; 250 mm×4.6 mm, 5 μm) HPLC column, at gradient elution in acetonitrile (ACN, 30-70% ACN in 57 min), and in MeOH (60-75% MeOH in 50 min). Cucurbitacins stock concentration of 10^−2M in DMSO:ethanol (1:1) was standardized against pure cucurbitacin I (Indofine Chemical Company, Hillsborough, N.J.) by analytical HPLC means. Compounds CHI was measured in both ACN, by using Alltima C18 column, and in MeOH, by using Econosil C18 column (Alltech; 150 mm×4.6 mm, 5 μm). Analytical separations were conducted at a flow rate of 1 ml/min. The aqueous phase was buffered for the CHI measurement. For this purpose, solid ammonium acetate (Fisher Sci. Co., Fair Lawn, N.J.) was dissolved in deionized distilled water at 50 mM final concentration and its pH adjusted to 7.0.
A standard mixture of 10 compounds including 19-21, 23-27, aniline (compound 28) and bromobenzene (compound 29), dissolved in MeOH, was injected at five isochratic elution, at 40, 45, 50, 55, and 60% MeOH. Then the mixture was injected at fast gradient elution to establish the correlation from Eq. (1). The fast linear gradient elution was optimized for 30-100% MeOH in aqueous buffer with 10 min runtime.
(§2) Cucurbitacins lipophilicity was measured by RP-HPLC. […] Due to its high viscosity, aqueous MeOH required a shorter column than the one applied for ACN. First, the C18 columns were calibrated against a standard mixture, and the relationships established between the fast gradient tR and φ0 or published CHI (see Eqs. (2)-(4) from Table 2). Second, cucurbitacins were injected at fast gradient elution under similar conditions, and their CHI calculated (Table 4) from Eqs. (2)-(4). Eqs.

[4] = system: HSC-T6 cells; experiment: Serum-driven HSC-T6 proliferation, experiment 3 (24 h, proliferating cells); format: cell-based, rat; conditions: HSC-T6, 24 h, read-out: Experiment 3 EC50 (A)
Description: (§3) To overcome this problem, the amount of incubation time was increased to 24 h, and cucurbitacin activity measured on starved (Exp. 2) or proliferative (Exp. 3) cells (Table 8). Cells turned quiescent when serum was not supplemented for one day (Exp. 2). Activity of a few compounds was monitored on quiescent cells, and their activity compared to the ones measured on proliferating cells (Exp. 3).
(§4) We established several experimental conditions such as 4 hours of incubation time with cucurbitacin, and 2 day cell incubation with fresh media after challenging with cucurbitacin (Exp. 1). Other experiments involved addition of cucurbitacin for 24 hours over starved cells (Exp. 2) vs. proliferating cells (Exp. 3), and one day incubation of cells with fresh media after challenge. The 4 hour incubation period with cucurbitacin triggered anti-proliferation effect. This effect, however, was hindered by a second cycle of cell proliferation during the two-day cell growth period (see silybin, E and I glucosides, and for I-nPr). […] Because of that, the challenge time was increased to 24 hours (Exp. 2 and 3).
(§5) In experiment 3, only 40% of the cells divided. The ratio of EC50 values for exp. 2 and exp. 3 varied between 3.6 and 12.7. This may indicate differential cytotoxicity of silybin and cucurbitacin analogs over quiescent and active stellate cells. In other words, compounds show higher anti-proliferative activity on active cells than on quiescent cells.

[5] = system: HSC-T6 cells; experiment: Serum-driven HSC-T6 proliferation, experiment 2 (24 h, starved/quiescent cells); format: cell-based, rat; conditions: HSC-T6, 24 h, read-out: Experiment 2 EC50
Description: as §3, §4, §5

[6] = system: HSC-T6 cells; experiment: Serum-driven HSC-T6 proliferation, experiment 1 (4 h challenge, two days drug-free growth); format: cell-based, rat; conditions: for EC50: HSC-T6, 4 h challenge, then two days drug-free media
Description: The proliferation effect of serum on HSC-T6 cells was optimized and cucurbitacin antiproliferative activity was measured. Serum contains a large number of growth factors, hormones and other nutrients, which help cells to grow and multiply. Several trials were conducted. In experiment 1, cells were challenged with cucurbitacin analogs for 4 h and then cells were grown in drug-free media for two additional days.
HSC-T6 cells were photographed under phase-contrast microscope to record possible changes in cell morphology during experiment 1. […] We are monitoring specifically the effect of compound on the cells, cell recovery after 4 h challenge, and relative cell proliferation. […] Live cells are quantified at the end of the assay (row 4) with MTT dye.
We established several experimental conditions such as 4 hours of incubation time with cucurbitacin, and 2 day cell incubation with fresh media after challenging with cucurbitacin (Exp. 1). Other experiments involved addition of cucurbitacin for 24 hours over starved cells (Exp. 2) vs. proliferating cells (Exp. 3), and one day incubation of cells with fresh media after challenge. […] Because of that, the challenge time was increased to 24 hours (Exp. 2 and 3).
We modified this approach. Our assay included a second control (ZC) supplemented with no serum intended to measure cucurbitacin anti-proliferation effect relative to the number of cells generated during challenge instead of the total number of cells present in each well.

[7] = Chromatographic hydrophobicity index (CHI) by RP-HPLC in buffered acetonitrile; format: physicochemical; parameters: key: CHI = φ0 (isocratic hydrophobicity index), = A·tR + B; ACN % scale; conditions: for CHIACN1: buffered acetonitrile pH 7.0, Alltima C18 250 mm, Eq. (2) from isocratic φ0; for CHIACN2: buffered acetonitrile pH 7.0, Eq. (3) calibrated against published CHI; for CHIACN (b): standard compounds, isochratic and gradient elution of standard mixture
Description: as §1
All standard compounds were purchased from Acros (Acros Organics, NJ). The chromatographic lipophilicity or hydrophobicity was determined applying Valkó's technique (Valkó et al., Anal. Chem. 69 (1997) 2022, the entire disclosure of which is herein incorporated by reference). A standard mixture of seven compounds was prepared in solution: theophylline (compound 19), benzimidazole (compound 20), acetophenone (compound 21), indole (compound 22), propiophenone (compound 23), butyrophenone (compound 24), and valerophenone (compound 25). […] The retention factor, log k=log((tR-t0)/t0), was calculated for each analyte from five good injections of […] sample. The dead time (t0) was measured by injecting NaNO3 together with the sample. Then, the log k values were plotted against isocratic ACN concentrations to establish the linear regression equations for each analyte. From each straight line the isocratic hydrophobicity index was computed, φ0=(intercept/slope). Further, the calibration mixture was injected at fast gradient elution, 0-22 min 0-100% ACN, and three additional minutes at 100% ACN. The φ0 values for the test compounds were plotted against gradient retention time and the linear equation determined from the following equation: φ0=CHI=AtR+B (1)
The gradient elution conditions were similar to the one from the first approach.
as §2

[8] = standard compounds; gradient elution and correlation with published data; cited from earlier work
[9] = DPPH* Stable Free Radical Scavenging Assay
Description: Cucurbitacin antioxidant activity was studied first by the DPPH* Stable Free Radical Scavenging Assay (Cotelle et al., Free radical Biology & Medicine 20(1): 35-43, 1996). Experimental conditions were optimized on the standard compound ascorbic acid. Data indicated 30% activity at 50 μM concentration, and 100% activity at 100 μM for ascorbic acid. While the original assay required 10 minutes incubation time for the reaction to occur, this time was increased up to 30 minutes in case cucurbitacin were reacting slower than other reagents.

[10] = system: lipid peroxidation of microsomal suspension; experiment: Microsomal Lipid Peroxidation Assay; format: biochemical; conditions: at 0.1 mM, both chemical and enzymatic assays
Description: Cucurbitacin anti-lipid peroxidation was studied by the Microsomal Lipid Peroxidation Assay (Engineer et al., Biochemical Pharmacology 38(8): 1279-1285, 1989). Lipid peroxidation of microsomal suspension was induced both enzymatically and chemically and validated on the standard compound quercetin. […] Activity of 3 cucurbitacin analogs, B, E, and E-Me-ether was monitored at 0.1 mM indicating no inhibition in either the chemical or enzymatic assay.

[11] = system: HepG2 cells; experiment: Cucurbitacins cytotoxicity on HepG2 cells (MTT viability assay); format: cell-based, human
Description: HepG2 (human hepatocellular carcinoma, ATCC) cells were grown in EMEM (Gibco, Grand Island, N.Y.) supplemented with 10% fetal bovine serum (FBS), and 1% penicillin/fungizone mixture (Gibco). Thabrew's optimized procedure (Thabrew et al., J. Pharm. Pharmcol. 49 (1994) 1442, the entire disclosure of which is herein incorporated by reference) was followed. Cells were batch cultured for 10 days, then seeded at concentration of 30,000 cells/well in fresh media in 96-well microtiter plastic plates at 37° C. for a day. Then cells were exposed to different concentrations of cucurbitacins at final volume of 100 μl/well. Five-fold serial dilution of compounds was carried out in the plate for five consecutive wells. After 24 h of incubation with chemicals, live cells were visualized using the MTT viability assay (Promega, Madison, Wis.). The absorbance was measured at 570 nm. Negative (without cells) and positive (without test chemicals) controls were also incubated with each plate. […] At least three reproducible experiments were performed per compound with three replicate wells per concentration.
Cells were challenged with cu-curbitacins at various concentrations for a day and then live cells quantified with MTT dye. This period of time measures exclusively compounds cytotoxicity, while longer incubation time may lead to interference from metabolites.

[12] = read-out: EC50 cytoprotection, Table 7, HepG2 against CCl4 toxicity, estimated

SMILES: COC1=CC2C(=CCC3C2(C)C(=O)CC2(C)C(C(C)(O)C(=O)CCC(C)(C)O)C(O)CC32C)C(C)(C)C1=O [L-Me]
- IC50 [1]: 6.7 µM
- EC50 [2, 12]: 5 µM
- CHIMeOH [3]: 66.58
- EC50 ([4]; proliferating cells): 0.18 µM
- EC50 ([5]; starved (quiescent) cells): 1 µM
- EC50 [6]: 10.8 µM
- CHIACN1 [7]: 64.84
- CHIACN2 [7]: 65.95

SMILES: Cn1c(=O)c2[nH]cnc2n(C)c1=O [Theophylline (19), theophylline, reference compound]
- CHIMeOH (b) [3]: 25.76 ± 0.05
- CHIACN (c) [8]: 15.76
- CHIACN (b) [7]: 32.63 ± 0.07

SMILES: COc1cc(C2Oc3cc([C@H]4Oc5cc(O)cc(O)c5C(=O)[C@@H]4O)ccc3OC2CO)ccc1O (some centres unmarked) [Silybin, reference compound]
- Experiment 3 IC50 (T) [1]: non toxic
- cell growth with compound alone ([2]; HepG2, 14 to 200 μM, absence of CCl4): up to 125%
- concentration giving complete protection from CCl4 ([2]; HepG2, CCl4 4.5×10^−3 M): higher than 100 μM
- EC50 ([2]; Homo sapiens, HepG2, read-out: EC50 cytoprotection): 45 µM
- cytoprotection attained ([2]; text b199): 100%
- EC50 ([4]; Rattus norvegicus): 18.8 µM
- EC50 ([5]; Rattus norvegicus): 68 µM
- Experiment 1 anti-proliferation activity reached ([6]; EC50 could not be estimated): < 50%
- Experiment 1 anti-proliferation activity ([6]; measured at 100 μM): ˜20%^a^

SMILES: CCOC1=CC2C(=CCC3C2(C)C(=O)CC2(C)C(C(C)(O)C(=O)C=CC(C)(C)O)C(O)CC32C)C(C)(C)C1=O (centres unmarked) [I-Et]
- IC50 [1]: 3.5 µM
- CHIMeOH [3]: 69.61
- EC50 ([4]; proliferating cells): 0.34 µM
- EC50 ([5]; starved (quiescent) cells): 1.4 µM
- EC50 [6]: 7.95 µM
- CHIACN1 [7]: 69.99
- CHIACN2 [7]: 73.94

SMILES: O=C1O[C@H]([C@@H](O)CO)C(O)=C1O [ascorbic acid]
- DPPH activity ([9]; at 50 μM): 30%
- DPPH activity ([9]; at 100 μM): 100%

SMILES: c1ccc2[nH]cnc2c1 [Benzimidazole (20), benzimidazole, reference compound]
- CHIMeOH (b) [3]: 41.07 ± 0.04
- CHIACN (c) [8]: 30.71
- CHIACN (b) [7]: 43.18 ± 0.12

SMILES: CCC(=O)c1ccccc1 [Propiophenone (23), propiophenone, reference compound]
- CHIMeOH (b) [3]: 60.41 + 0.04
- CHIACN (c) [8]: 78.41
- CHIACN (b) [7]: 71.72 + 0.15

SMILES: CCCC(=O)c1ccccc1 [Butyrophenone (24), butyrophenone, reference compound]
- CHIMeOH (b) [3]: 66.79 ± 0.05
- CHIACN (c) [8]: 88.49
- CHIACN (b) [7]: 79.32 ± 0.14

SMILES: O=c1c(O)c(-c2ccc(O)c(O)c2)oc2cc(O)cc(O)c12 [quercetin, reference compound]
- inhibition of lipid peroxidation [10]: 100%

SMILES: CC(=O)c1ccccc1 [Acetophenone (21), acetophenone, reference compound]
- CHIMeOH (b) [3]: 52.47 ± 0.05
- CHIACN (c) [8]: 64.90
- CHIACN (b) [7]: 61.93 ± 0.05

SMILES: COC1=CC2C(=CCC3C2(C)C(=O)CC2(C)C(C(C)(O)C(=O)C=CC(C)(C)O)C(O)CC32C)C(C)(C)C1=O (centres unmarked) [I-Me]
- IC50 [1]: 6.4 µM
- IC50 ([11]; Table 4, 24 h incubation, MTT): 15 µM
- IC50 ([11]; Table 5): 15 ± 5.6 µM
- IC50 ([11]; Table 7): 15 µM
- EC50 [2, 12]: 5.3 µM
- CHIMeOH [3]: 66.58
- EC50 ([4]; proliferating cells): 0.11 µM
- EC50 ([5]; starved (quiescent) cells): 1.4 µM
- EC50 [6]: 3.4 µM
- CHIACN1 [7]: 64.84
- CHIACN2 [7]: 65.95

SMILES: CCCCC(=O)c1ccccc1 [Valerophenone (25), valerophenone, reference compound]
- CHIMeOH (b) [3]: 73.05 + 0.12
- CHIACN (c) [8]: 97.67
- CHIACN (b) [7]: 86.66 ± 0.08
